US20100280070A1, “NOVEL TETRAHYDROQUINOLINES AS AROMATASE INHIBITORS” (priority 2008, published 2010)
Where two headings read alike, the source gives them in different places.

Legend:
aromatase [1] = target: T1, aromatase (Homo sapiens, UniProt P11511); conditions: cited from earlier work; for RP, mammary fibroblast cultures: Aminoglutethimide = 1
T1 sequence (P11511 1-503): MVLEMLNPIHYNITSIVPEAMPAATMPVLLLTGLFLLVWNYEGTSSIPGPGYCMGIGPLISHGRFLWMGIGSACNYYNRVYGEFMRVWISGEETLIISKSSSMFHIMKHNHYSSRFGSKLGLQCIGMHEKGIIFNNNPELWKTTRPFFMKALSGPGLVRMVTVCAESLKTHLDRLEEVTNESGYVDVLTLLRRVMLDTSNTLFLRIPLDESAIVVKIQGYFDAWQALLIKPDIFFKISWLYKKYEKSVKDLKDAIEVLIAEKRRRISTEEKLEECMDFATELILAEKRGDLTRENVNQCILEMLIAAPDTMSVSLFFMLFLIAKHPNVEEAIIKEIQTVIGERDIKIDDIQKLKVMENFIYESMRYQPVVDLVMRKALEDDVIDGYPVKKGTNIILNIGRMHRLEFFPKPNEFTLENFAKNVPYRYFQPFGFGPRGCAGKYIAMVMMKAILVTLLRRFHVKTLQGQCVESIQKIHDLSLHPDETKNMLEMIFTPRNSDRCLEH

aromatase [2] = target: T1, aromatase; conditions: Aminoglutethimide = 1; cited from earlier work
aromatase [3] = target: T1, aromatase; assay: Aromatase inhibition assay in human placental microsomes; format: biochemical; set-up: Microsomal protein (1 mg, from human placental tissue); from tissue; host or cells: human placenta, microsomal fraction; conditions: inhibitor 500 nM; human placental microsomal protein; [1β-3H]androstenedione 15 nM; 15 min at 30° C.
aromatase [4] = target: T1, aromatase; conditions: read-out: IC50 from human placental microsomal assay; cited from earlier work

Row | Compound | inhibition at 0.5 µM (aromatase [3]) [%] | further results
1 | CC(C)(C#N)c1cc(Cn2cncn2)cc(C(C)(C)C#N)c1 [Anasatrozole] | – | RP, mammary fibroblast cultures (aromatase [1]): 570; RP, breast cancer homogenates (aromatase [2]): 450
2 | c1ccc(C2CC(n3ccnc3)c3ccccc3N2)cc1 (stereo not shown) [Compound 6a, 2-Phenyl-4-imidazol-1-yl-1,2,3,4-tetrahydro-quinoline] | 61.8 | –
3 | Cc1ccc(C2CC(n3ccnc3)c3ccccc3N2)cc1 (stereo not shown) [Compound 6b, 2-(p-Tolyl)-4-imidazol-1-yl-1,2,3,4-tetrahydro-quinoline] | 67.4 | –
4 | COc1ccc(C2CC(n3ccnc3)c3ccccc3N2)cc1 (stereo not shown) [Compound 6c, 2-(4-Methoxyphenyl)-4-imidazol-1-yl-1,2,3,4-tetrahydro-quinoline] | 53.1 | –
5 | Clc1ccc(C2CC(n3ccnc3)c3ccccc3N2)cc1 (stereo not shown) [Compound 6d, 2-(4-Chlorophenyl)-4-imidazol-1-yl-1,2,3,4-tetrahydro-quinoline] | 87.4 | –
6 | Brc1ccc(C2CC(n3ccnc3)c3ccccc3N2)cc1 (stereo not shown) [Compound 6e, 2-(4-Bromophenyl)-4-imidazol-1-yl-1,2,3,4-tetrahydro-quinoline] | 89.7 | –
7 | N#Cc1ccc(C2CC(n3ccnc3)c3ccccc3N2)cc1 (stereo not shown) [Compound 6f, 4-(4-Imidazol-1-yl-1,2,3,4-tetrahydro-quinolin-2-yl)-benzonitrile] | 84.3 | –
8 | Fc1ccc(C2CC(n3ccnc3)c3ccccc3N2)cc1 (stereo not shown) [Compound 6g, 2-(4-Fluorophenyl)-4-imidazol-1-yl-1,2,3,4-tetrahydro-quinoline] | 80.5 | –
9 | c1ccc(C2CC(n3cncn3)c3ccccc3N2)cc1 (stereo not shown) [Compound 6h, 2-Phenyl-4-[1,2,4]triazol-1-yl-1,2,3,4-tetrahydro-quinoline] | 11.2 | –
10 | Cc1ccc(C2CC(n3cncn3)c3ccccc3N2)cc1 (stereo not shown) [Compound 6i, 2-(p-Tolyl)-4-[1,2,4]triazol-1-yl-1,2,3,4-tetrahydro-quinoline] | 13.6 | –
11 | COc1ccc(C2CC(n3cncn3)c3ccccc3N2)cc1 (stereo not shown) [Compound 6j, 2-(4-Methoxyphenyl)-4-[1,2,4]triazol-1-yl-1,2,3,4-tetrahydro-quinoline] | 12.8 | –
12 | Clc1ccc(C2CC(n3cncn3)c3ccccc3N2)cc1 (stereo not shown) [Compound 6k, 2-(4-Chlorophenyl)-4-[1,2,4]triazol-1-yl-1,2,3,4-tetrahydro-quinoline] | 41.9 | –
13 | Brc1ccc(C2CC(n3cncn3)c3ccccc3N2)cc1 (stereo not shown) [Compound 6l, 2-(4-Bromophenyl)-4-[1,2,4]triazol-1-yl-1,2,3,4-tetrahydro-quinoline] | 43.9 | –
14 | N#Cc1ccc(C2CC(n3cncn3)c3ccccc3N2)cc1 (stereo not shown) [Compound 6m, 4-(4-[1,2,4]Triazol-1-yl-1,2,3,4-tetrahydro-quinolin-2-yl)-benzonitrile] | 36.1 | –
15 | Fc1ccc(C2CC(n3cncn3)c3ccccc3N2)cc1 (stereo not shown) [Compound 6n, 2-(4-Fluorophenyl)-4-[1,2,4]triazol-1-yl-1,2,3,4-tetrahydro-quinoline] | 19.5 | –
16 | O=c1c(Cc2ccncc2)c(-c2ccccc2)[nH]c2ccccc12 [Compound 10a, 2-Phenyl-3-((pyridin-4-yl)methyl)quinolin-4(1H)-one] | 7.2 | –
17 | Cc1ccc(-c2[nH]c3ccccc3c(=O)c2Cc2ccncc2)cc1 [Compound 10b, 2-(p-Tolyl)-3-((pyridin-4-yl)methyl)quinolin-4(1H)-one] | 3.1 | –
18 | COc1ccc(-c2[nH]c3ccccc3c(=O)c2Cc2ccncc2)cc1 [Compound 10c, 2-(4-Methoxyphenyl)-3-((pyridin-4-yl)methyl)quinolin-4(1H)-one] | 0.7 | –
19 | O=c1c(Cc2ccncc2)c(-c2ccc(Cl)cc2)[nH]c2ccccc12 [Compound 10d, 2-(4-Chlorophenyl)-3-((pyridin-4-yl)methyl)quinolin-4(1H)-one] | 13.7 | –
20 | O=c1c(Cc2ccncc2)c(-c2ccc(Br)cc2)[nH]c2ccccc12 [Compound 10e, 2-(4-Bromophenyl)-3-((pyridin-4-yl)methyl)quinolin-4(1H)-one] | 8.2 | –
21 | N#Cc1ccc(-c2[nH]c3ccccc3c(=O)c2Cc2ccncc2)cc1 [Compound 10f] | 1.8 | –
22 | O=c1c(Cc2ccncc2)c(-c2ccc(F)cc2)[nH]c2ccccc12 [Compound 10g, 2-(4-Fluorophenyl)-3-((pyridin-4-yl)methyl)quinolin-4(1H)-one] | 11.8 | –
23 | O=c1c(Cc2ccncc2)c(-c2ccccc2)[nH]c2c(Br)cc(Br)cc12 [Compound 10h, 6,8-Dibromo-2-phenyl-3-((pyridin-4-yl)methyl)quinolin-4(1H)-one] | 27.3 | –
24 | Cc1ccc(-c2[nH]c3c(Br)cc(Br)cc3c(=O)c2Cc2ccncc2)cc1 [Compound 10i, 6,8-Dibromo-2-(p-tolyl)-3-((pyridin-4-yl)methyl)quinolin-4(1H)-one] | 22.3 | –
25 | COc1ccc(-c2[nH]c3c(Br)cc(Br)cc3c(=O)c2Cc2ccncc2)cc1 [Compound 10j, 6,8-Dibromo-2-(4-Methoxyphenyl)-3-((pyridin-4-yl)methyl)quinolin-4(1H)-one] | 40.5 | –
26 | O=c1c(Cc2ccncc2)c(-c2ccc(Cl)cc2)[nH]c2c(Br)cc(Br)cc12 [Compound 10k, 6,8-Dibromo-2-(4-Chlorophenyl)-3-((pyridin-4-yl)methyl)quinolin-4(1H)-one] | 55.7 | –
27 | C[C@]12CCC(=O)C(O)=C1CC[C@@H]1[C@@H]2CC[C@]2(C)C(=O)CC[C@@H]12 [Formestane] | – | IC50 (aromatase [1]; read-out: IC50, mammary fibroblast cultures): 45 nM; IC50 (aromatase [4]): 50 nM
28 | N#Cc1ccc(C(c2ccc(C#N)cc2)n2cncn2)cc1 [Letrozole] | – | RP, mammary fibroblast cultures (aromatase [1]): 10,000; RP, breast cancer homogenates (aromatase [2]): 1800
